SMILES strings stand for the structures. Some results are limits rather than exact numbers.

Data set [1] relates to DU145 (prostate cancer). The data set can be described thus: Effect on tumor cell lines, viable cell count by trypan blue exclusion (Latham et al.): DU145. Type of data set: cell-based. Conditions: DU145 prostate cancer cells, viable cell count 96 hours after treatment. How it is done:
(§1) The effect of the compounds of the invention on tumor cells was determined by the assay described by Latham et al., Oncogene 12:827-837 (1996). Tumor cells DU145 (prostate cancer), K562 (chronic myelogenous leukaemia), BT20 (breast carcinoma), H157 (non small cell lung carcinoma), or DLD1 (colon carcinoma) were plated in 6-well dishes at a cell density of 1.0×10^5 cells per 35-mm^2 well. […] The total number of viable cells was determined 96 hours later by trypsinizing the wells and counting the number of viable cells, as determined by trypan blue exclusion, using a hemacytometer. Normal HFL cells were treated with the same compounds under the same conditions of concentration and time.

In data set [2] the test system is K562 (chronic myelogenous leukaemia). The data set can be described thus: Effect on tumor cell lines, viable cell count by trypan blue exclusion (Latham et al.): K562. Particulars: K562 chronic myelogenous leukaemia cells, viable cell count 96 hours after treatment. In kind it is cell-based. How it is done:
as §1

As a reminder, the IC50 is the midpoint of a concentration-inhibition curve. Lower therefore signals higher potency. In general, melting point refers to the temperature, or range, at which the solid turns liquid. `COc1ccc(CS(=O)(=O)/C(C#N)=C/c2c(F)c(F)c(F)c(F)c2F)cc1` [Example 11]: the melting point is 110 to 112 °C. This molecule also had an IC50 in data set [1] (Homo sapiens, DU-145, 96 h) of 25 µM. In data set [2] (Homo sapiens, K562, 96 h), this molecule gave an IC50 of 1 µM.
Consider `COc1ccc(CS(=O)(=O)/C(C#N)=C/c2ccc(F)cc2Cl)cc1` [Example 15], for which the melting point fell in the range of 138 to 140 °C. The same molecule registered an IC50 in data set [1] (Homo sapiens, DU-145, 96 h) of 25 µM.
Turning to `N#C/C(=C\c1ccc(C#N)cc1F)S(=O)(=O)Cc1ccc(Br)cc1` [Example 16], the melting point lay within 202 to 204 °C. In addition, the IC50 in data set [1] (Homo sapiens, DU-145, 96 h) stood at 75 µM. The molecule also yielded an IC50 in data set [2] (Homo sapiens, K562, 96 h) of 10 µM.
The matching figures for `COc1cccc(OC)c1/C=C(\C#N)S(=O)(=O)Cc1ccc(Br)cc1` [Example 18]: 156 to 158 °C, 25 µM and 10 µM.
Regarding `N#C/C(=C\c1c(F)c(F)c(F)c(F)c1F)S(=O)(=O)Cc1ccc(Br)cc1` [Example 19], the melting point is 146 to 148 °C. In data set [1] (Homo sapiens, DU-145, 96 h), this molecule yielded a concentration for half-maximal inhibition (IC50) of 50 µM. Further, the concentration for half-maximal inhibition (IC50) in data set [2] (Homo sapiens, K562, 96 h) was found to be 10 µM.
For `COc1cc(OC)c(/C=C(\C#N)S(=O)(=O)Cc2ccc(Br)cc2)c(OC)c1` [Example 20], in that order: 158 to 160 °C, 75 µM and 10 µM.
The molecule `N#C/C(=C\c1c(F)c(F)c(F)c(F)c1F)S(=O)(=O)Cc1ccc(Cl)cc1` [Example 21] registered a melting point of 154 to 156 °C. Moreover, 50 µM corresponded to half-maximal inhibition in data set [1] (Homo sapiens, DU-145, 96 h) (IC50). This molecule had an IC50 in data set [2] (Homo sapiens, K562, 96 h) of 25 µM.
For the molecule `COc1ccc(CS(=O)(=O)/C(C#N)=C/c2ccc3oc(=O)[nH]c3c2)cc1` [Example 22], the melting point lay within 210 to 212 °C. In addition, it took 10 µM to reach half-maximal inhibition in data set [1] (Homo sapiens, DU-145, 96 h) (IC50).
With `COc1ccc(CS(=O)(=O)/C(C#N)=C/c2ccc3[nH]c(=O)oc3c2)cc1` [Example 23, (E)-2-[(4-methoxyphenyl)methanesulfonyl]-3-(2-benzoxazolon-6-yl)acrylonitrile], the melting point was 208 to 210 °C. For the same molecule, the IC50 in data set [1] (Homo sapiens, DU-145, 96 h) was found to be 50 µM.
In the case of `N#C/C(=C\c1ccc(O)c(O)c1)S(=O)(=O)Cc1ccc(Cl)cc1` [Example 24], the melting point lay in the range of 178 to 180 °C. Further, in data set [1] (Homo sapiens, DU-145, 96 h), the 50% inhibitory concentration (IC50) was 10 µM.
`COc1ccc(CS(=O)(=O)/C(C#N)=C/c2ccc(O)c(O)c2)cc1` [Example 25] registered a melting point of 144 to 146 °C. In data set [1] (Homo sapiens, DU-145, 96 h), this molecule had a concentration for half-maximal inhibition (IC50) of 10 µM.
For `COc1ccc(CS(=O)(=O)/C(C#N)=C/c2ccc3c(c2)OCO3)cc1` [Example 27, (E)-2-[(4-methoxyphenyl)methanesulfonyl]-3-(1,3-benzodioxole-5-yl)acrylonitrile], in that order: 186 to 188 °C and 100 µM.
Take `COc1ccc(CS(=O)(=O)/C(C#N)=C/c2ccc3oc(=O)[nH]c3c2)cc1OC` [Example 30]: the melting point was 174 to 176 °C. In data set [1] (Homo sapiens, DU-145, 96 h), this molecule registered a 50% inhibitory concentration (IC50) of 100 µM.
The matching figures for `N#C/C(=C\c1c(F)c(F)c(F)c(F)c1F)S(=O)(=O)Cc1ccc(F)cc1` [Example 33]: 156 to 158 °C and 2.5 µM.
Turning to `COc1ccc(CS(=O)(=O)/C(C#N)=C/c2c(F)c(F)c(F)c(F)c2F)cc1[N+](=O)[O-]` [Example 35], the melting point lay within 144 to 146 °C. In data set [1] (Homo sapiens, DU-145, 96 h), this molecule had an IC50 of 25 µM. This molecule showed an IC50 in data set [2] (Homo sapiens, K562, 96 h) of 1 µM.
The matching figures for `COc1cc(OC)c(/C=C(\C#N)S(=O)(=O)Cc2ccc(OC)c(N)c2)c(OC)c1` [Example 36]: 198 to 200 °C, 25 µM and 5 µM.
On to `CCOC(=O)c1c(C)[nH]c(/C=C(\C#N)S(=O)(=O)Cc2ccc(F)cc2)c1C` [Example 37, (E)-2-[(4-fluorophenyl)methanesulfonyl]-3-(4-ethoxycarbonyl-3,5-dimethylpyrrol-2-yl)acrylonitrile], for which the IC50 lay within 50 to 100 µM in data set [1] (Homo sapiens, DU-145, 96 h) and 50 to 100 µM in data set [2] (Homo sapiens, K562, 96 h).
Molecule `COc1ccc(CS(=O)(=O)/C(C#N)=C/c2c(F)c(F)c(F)c(F)c2F)cc1OS(=O)(=O)c1ccc(C)cc1` [Example 38, (E)-2-[(4-methoxy-3-(4-methylphenylsulfonyloxy)phenyl)methanesulfonyl]-3-(2,3,4,5,6-pentafluorophenyl)acrylonitrile] registered a melting point of 170 to 172 °C. In data set [1] (Homo sapiens, DU-145, 96 h), the IC50 is > 100 µM. This molecule also displayed a 50% inhibitory concentration (IC50) in data set [2] (Homo sapiens, K562, 96 h) of 50 to 100 µM.
For `COc1cc(OC)c(/C=C(\C#N)S(=O)(=O)Cc2ccc(OC)c(F)c2)c(OC)c1` [Example 39], in that order: 162 to 164 °C, 1 to 10 µM and 1 to 10 µM.
`Cc1ccc(C)c(/C=C(\C#N)S(=O)(=O)Cc2ccc(Cl)cc2)c1` [Example 40] gave a melting point of 123 to 126 °C. The molecule also gave an IC50 in data set [1] (Homo sapiens, DU-145, 96 h) of 25 to 50 µM. This molecule also returned an IC50 in data set [2] (Homo sapiens, K562, 96 h) of 1 to 10 µM.
The matching figures for `N#C/C(=C\c1ccc(F)cc1Cl)S(=O)(=O)Cc1ccc(Cl)cc1` [Example 41]: 124 to 126 °C, 50 to 100 µM and 50 to 100 µM.
For `Cc1cc(/C=C(\C#N)S(=O)(=O)Cc2ccc(Cl)cc2)ccc1F` [Example 42], in that order: 140 to 145 °C, 50 to 100 µM and 50 to 100 µM.
`CSc1ccc(/C=C(\C#N)S(=O)(=O)Cc2ccc(Cl)cc2)cc1` [Example 43]: the half-maximal inhibitory concentration (IC50) in data set [1] was > 100 µM; in data set [2], 50 to 100 µM.
Molecule `COc1ccc(/C=C(\C#N)S(=O)(=O)Cc2ccc(Cl)cc2)cc1O` [Example 44] came in with a melting point of 155 to 165 °C. Besides, the IC50 in data set [1] (Homo sapiens, DU-145, 96 h) was > 100 µM. Moreover, the IC50 in data set [2] (Homo sapiens, K562, 96 h) fell in the range of 50 to 100 µM.
In the case of `CN(C)c1ccc(/C=C(\C#N)S(=O)(=O)Cc2ccc(Cl)cc2)cc1` [Example 58], the IC50 in data set [1] (Homo sapiens, DU-145, 96 h) was in the range of 50 to 100 µM; in data set [2] (Homo sapiens, K562, 96 h), 25 to 50 µM.
With `N#C/C(=C\c1ccc(-c2ccccc2)cc1)S(=O)(=O)Cc1ccc(Cl)cc1` [Example 67], the 50% inhibitory concentration (IC50) in data set [1] and in data set [2] was > 100 µM each time.
On to `CSc1ccc(/C=C(\C#N)S(=O)(=O)Cc2ccc(Cl)cc2Cl)cc1` [Example 76], for which the IC50 in data set [1] and in data set [2] was 50 to 100 µM each time.
Consider `CSc1ccc(/C=C(\C#N)S(=O)(=O)Cc2ccc(F)cc2)cc1` [Example 87], for which the IC50 in data set [1] and in data set [2] was 25 to 50 µM each time.
Regarding `Cc1ccsc1/C=C(\C#N)S(=O)(=O)Cc1ccc(Cl)cc1Cl` [Example 102], the IC50 in data set [1] is > 100 µM; in data set [2] it was 50 to 100 µM.
With `Cc1ccsc1/C=C(\C#N)S(=O)(=O)Cc1ccc(Cl)cc1` [Example 120], the IC50 in data set [1] is 50 to 100 µM; in data set [2], 25 to 50 µM.
As to `Cc1ccsc1/C=C(\C#N)S(=O)(=O)Cc1ccccc1` [Example 127], the IC50 in data set [1] and in data set [2] was > 100 µM in each case.
With `N#C/C(=C\c1ccc(-c2ccccc2)cc1)S(=O)(=O)Cc1ccccc1` [Example 138], the IC50 in data set [1] and in data set [2] was > 100 µM throughout.
Turning to `COc1ccc(CS(=O)(=O)/C(C#N)=C/c2ccc(-c3ccccc3)cc2)cc1` [Example 140], the IC50 in data set [1] and in data set [2] was > 100 µM in each case.
Consider `COc1cc(OC)c(/C=C(\[N+](=O)[O-])S(=O)(=O)c2ccc(C)cc2)c(OC)c1` [Example 185], for which the melting point is 192 to 194 °C. In data set [1] (Homo sapiens, DU-145, 96 h), this molecule displayed an IC50 of 50 µM.
The matching figures for `COc1cc(OC)c(/C=C(\[N+](=O)[O-])S(=O)(=O)c2ccc(Br)cc2)c(OC)c1` [Example 186]: 184 to 186 °C and 25 µM.
As to `COc1ccc(CS(=O)(=O)/C(=C/c2c(OC)cc(OC)cc2OC)[N+](=O)[O-])cc1` [Example 188], the IC50 is < 1 µM in data set [1] (Homo sapiens, DU-145, 96 h) and 2 µM in data set [2] (Homo sapiens, K562, 96 h).
As for `COc1cc(OC)c(/C=C(\[N+](=O)[O-])S(=O)(=O)Cc2ccc(F)cc2)c(OC)c1` [Example 189], the IC50 in data set [1] (Homo sapiens, DU-145, 96 h) worked out at 2.5 µM; in data set [2] (Homo sapiens, K562, 96 h) it was 5 µM.
For `COc1ccc(NS(=O)(=O)/C(C#N)=C/c2cc(OC)cc(OC)c2)cc1` [Example 201], the melting point was in the range of 167 to 168 °C. Further, the concentration for half-maximal inhibition (IC50) in data set [1] (Homo sapiens, DU-145, 96 h) is > 100 µM.
For `COc1ccc(NS(=O)(=O)/C(C#N)=C/c2ccc(C)c(C)c2)cc1` [Example 203], in that order: 152 to 154 °C and > 100 µM.
`N#C/C(=C\c1ccc(-c2ccccc2)cc1)S(=O)(=O)Nc1ccc(Br)cc1` [Example 220]: the results for the IC50 in data set [1] and in data set [2] were 50 to 100 µM and 10 to 25 µM, respectively.
Regarding `N#C/C(=C\c1ccc(-c2ccccc2)cc1)S(=O)(=O)Nc1ccc(F)cc1` [Example 239], the IC50 in data set [1] lay in the range of 50 to 100 µM; in data set [2] it was 10 to 25 µM.
The matching figures for `Cc1ccc(NS(=O)(=O)/C(C#N)=C/c2ccc(-c3ccccc3)cc2)c(C)c1` [Example 260]: 50 to 100 µM and 25 to 50 µM.
The matching figures for `CSc1ccc(/C=C(\C#N)S(=O)(=O)Nc2ccc(C)cc2C)cc1` [Example 276]: > 100 µM and > 100 µM.
Consider `COc1ccc(NS(=O)(=O)/C(C#N)=C/c2ccc(-c3ccccc3)cc2)cc1` [Example 286], for which the IC50 in data set [1] and in data set [2] was 50 to 100 µM in each case.
`COc1ccc(NS(=O)(=O)/C(C#N)=C/c2ccc(SC)cc2)cc1` [Example 293]: the IC50 in data set [1] and in data set [2] was > 100 µM each time.
`COc1ccc(NS(=O)(=O)/C(C#N)=C/c2cc(Cl)cc(Cl)c2Cl)cc1` [Example 294] showed a melting point of 180 to 181 °C. In data set [2] (Homo sapiens, K562, 96 h), the IC50 is < 1 µM.

For the origin of these results see patent US20090191193A1, “Aryl Vinyl Sulfides, Sulfones, Sulfoxides and Sulfonamides, Derivatives Thereof and Therapeutic Uses Thereof” (TEMPLE UNIVERSITY-OF THE COMMONWEALTH SYSTEM OF HIGHER …, priority 2006, published 2009).
